Measurements from patent US20120095025A1, “SUBSTITUTED [1,2,4]TRIAZOLO[1,5-a]PYRIMIDINES AND THEIR USE AS POTASSIUM CHANNEL MODULATORS” (NEUROSEARCH A/S, priority 2009, published 2012).

Target: T1, hSK1 channels (Homo sapiens, UniProt Q92952)
T1 construct: expressed in transfected cells; host or cells: HEK293
Assay: Whole-cell patch-clamp recording of SK channel current in HEK293 cells expressing hSK1
Type: cell-based
Conditions: concentration required for decreasing the baseline current to 50% of the initial current
Procedure: The ionic current through small-conductance Ca^2+-activated K^+ channels (SK channels, subtype 1) is recorded using the whole-cell configuration of the patch-clamp technique in a classic patch-clamp set-up using HEK293 tissue culture cells expressing hSK1 channels as described in e.g. WO 2006/100212.
For inhibitors a Kd value, defined as the concentration required for decreasing the baseline current to 50% of the initial current, was estimated.

SMILES	Kd [nM]
CON=CNc1nc2nccc(C(C)(C)Oc3ccc(C(C)(C)C)cc3)n2n1 [Example 10, N-{7-[1-(4-tert-Butylphenoxy)-1-methyl-ethyl]-[1,2,4]triazolo[1,5-a]pyrimidin-2-yl}-N′-methoxy-formamidine]	100 to 1000
CON=CNc1nc2nccc(C(C)Oc3ccc(C(C)C)cc3)n2n1 (centres unmarked) [Example 6, N-{7-[1-(4-Isopropylphenoxy)ethyl]-[1,2,4]triazolo[1,5-a]pyrimidin-2-yl}-N′-methoxy-formamidine]	> 3000
CON=CNc1nc2nccc(COc3ccc(C(C)(C)C)cc3)n2n1 [Example 4, N-[7-(4-tert-Butylphenoxymethyl)-[1,2,4]triazolo[1,5-a]pyrimidin-2-yl]-N′-methoxy-formamidine]	> 3000
CCC(Oc1ccc(C(C)(C)C)cc1)c1ccnc2nc(NC=NOC)nn12 (centres unmarked) [Example 8, N-{7-[1-(4-tert-Butylphenoxy)propyl]-[1,2,4]triazolo[1,5-a]pyrimidin-2-yl}-N′-methoxy-formamidine]	< 100
CON=CNc1nc2nccc(C(C)Oc3ccc(C4CCCC4)cc3)n2n1 (centres unmarked) [Example 5, N-{7-[1-(4-cyclopentyl-phenoxy)ethyl]-[1,2,4]triazolo[1,5-a]pyrimidin-2-yl}-N′-methoxy-formamidine]	> 3000
CON=CNc1nc2nccc(C(C)Oc3ccc(C(C)(C)C)cc3C)n2n1 (centres unmarked) [Example 7, N-{7-[1-(4-tert-Butyl-2-methylphenoxy)ethyl]-[1,2,4]triazolo[1,5-a]pyrimidin-2-yl}-N′-methoxy-formamidine]	< 100
CON=CNc1nc2nccc(C(C)Oc3ccc(OC(C)(C)C)cc3)n2n1 (centres unmarked) [Example 9, N-{7-[1-(4-tert-Butoxy-phenoxy)ethyl]-[1,2,4]triazolo[1,5-a]pyrimidin-2-yl}-N′-methoxy-formamidine]	< 100

Next, values leading:

Kd [nM]	SMILES
< 100	CON=CNc1nc2nccc(C(C)Oc3ccc(C(C)(C)C)cc3)n2n1 (centres unmarked) [Example A, N-{7-[1-(4-tert-Butylphenoxy)ethyl]-[1,2,4]triazolo[1,5-a]pyrimidin-2-yl}-N′-methoxy-formamidine]
< 100	CCCON=CNc1nc2nccc(C(C)Oc3ccc(C(C)(C)C)cc3)n2n1 (centres unmarked) [Example 2, N-{7-[1-(4-tert-Butylphenoxy)ethyl]-[1,2,4]triazolo[1,5-a]pyrimidin-2-yl}-N′-propyloxy-formamidine]
> 3000	CC(C)ON=CNc1nc2nccc(C(C)Oc3ccc(C(C)(C)C)cc3)n2n1 (centres unmarked) [Example 3, N-{7-[1-(4-tert-Butylphenoxy)ethyl]-[1,2,4]triazolo[1,5-a]pyrimidin-2-yl}-N′-isopropyloxy-formamidine]
100 to 1000	CC(Oc1ccc(C(C)(C)C)cc1)c1ccnc2nc(NC=NO)nn12 (centres unmarked) [Example 1, N-{7-[1-(4-tert-Butylphenoxy)ethyl]-[1,2,4]triazolo[1,5-a]pyrimidin-2-yl}-N′-hydroxy-formamidine]
